Reference: patent US8871756B2 (Hoffmann-La Roche Inc., priority 2011, dated 2014)
Structures can show the parent of a compound that is named as a salt.

These compounds were tested on RSV Long strain (assay: Viral cytopathic effect (CPE) assay, anti-RSV activity). Conditions: human respiratory syncytial virus, 144 h, RSV Long strain (ATCC); cell viability after 6 days, Cell Counting kit-8.
Type: cell-based, Respiratory Syncytial Virus
Summary of the method: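 Cells (6×10^3/well, DMEM with 10% FBS) were infected next day with RSV Long strain, at a dose giving approximately 80–90% CPE, alongside serial half-log compound dilutions. Viability was read after 6 days by CCK-8 absorbance at 450 nm (reference 630 nm), and EC50 was derived from it.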

Going from Cc1ccc2nc(N3CCS(=O)(=O)c4ccccc4C3)nc(NC3CNC3)c2c1 [Example 93-2, N-(Azetidin-3-yl)-6-methyl-2-(1,1-dioxido-2,3-dihydro-1,4-benzothiazepin-4(5H)-yl)quinazolin-4-amine] to Cc1ccc2nc(N3CCS(=O)(=O)c4ccccc4C3)nc(NCCN)c2c1 [Example 90, N-[2-(1,1-Dioxido-2,3-dihydro-1,4-benzothiazepin-4(5H)-yl)-6-methylquinazolin-4-yl]ethane-1,2-diamine], the EC50 falls from 0.009 µM to 0.005 µM (1.8-fold).

First: N=C(N)NCCNc1cc(N2CCCc3ccccc3C2)nc2ccccc12 [Example 125, 1-(2-{[2-(1,3,4,5-Tetrahydro-2H-2-benzazepin-2-yl)quinolin-4-yl]amino}ethyl)guanidine trifluoroacetate]
Second: Cc1ccc2nc(N3CCC(F)(F)c4ccccc4C3)cc(NCCCN)c2c1 [Example 111-9, N-[2-(5,5-Difluoro-1,3,4,5-tetrahydro-2H-2-benzazepin-2-yl)-6-methylquinolin-4-yl]propane-1,3-diamine]
The EC50 of the first is 54-fold higher: 2.52 µM for the first, 0.047 µM for the second.

First: Cc1ccc2nc(N3CC[S+]([O-])c4ccccc4C3)cc(NCC3(CN)COC3)c2c1 (stereo not shown) [Example 18-8, N-{[3-(Aminomethyl)oxetan-3-yl]methyl}-6-methyl-2-(1-oxido-2,3-dihydro-1,4-benzothiazepin-4(5H)-yl)quinolin-4-amine]
Second: Cc1ccc2nc(N3CC[S+]([O-])c4ccccc4C3)cc(NCC(O)CO)c2c1 (stereo not shown) [Example 32-4, 3-{[6-Methyl-2-(1-oxido-2,3-dihydro-1,4-benzothiazepin-4(5H)-yl)quinolin-4-yl]amino}propane-1,2-diol]
The EC50 of the first is 390-fold lower: 0.0007 µM for the first, 0.272 µM for the second. The first is the more potent here.

Compared with NC1(CNc2nc(N3CCSc4ccccc4C3)nc3ccc(Cl)cc23)COC1 [Example 57-4, N-[(3-Aminooxetan-3-yl)methyl]-6-chloro-2-(2,3-dihydro-1,4-benzothiazepin-4(5H)-yl)quinazolin-4-amine], Cc1ccc2nc(N3CCSc4ccccc4C3)cc(NCC3(N)COC3)c2c1 [Example 4-3, N-[(3-Aminooxetan-3-yl)methyl]-2-(2,3-dihydro-1,4-benzothiazepin-4(5 H)-yl)-6-methylquinolin-4-amine] is 9.2-fold lower in EC50: 0.239 µM for the first, 0.026 µM for the second. The second is the more potent here.

Compared with Cc1ccc2nc(N3CCS(=O)(=O)c4ccccc4C3)cc(N3C[C@@H](N)[C@H](O)C3)c2c1 (relative stereo) [Example 19-3, trans-4-Amino-1-[2-(1,1-dioxido-2,3-dihydro-1,4-benzothiazepin-4(5H)-yl)-6-methylquinolin-4-yl]pyrrolidin-3-ol], Cc1ccc2nc(N3CCS(=N)(=O)c4ccccc4C3)cc(N3CC(N)C(O)C3)c2c1 (stereo not drawn) [Example 78-1, trans-4-Amino-1-[2-(1-imino-1-oxido-1,2,3,5-tetrahydro-4H-1lambda˜4˜,4-benzothiazepin-4-yl)-6-methylquinolin-4-yl]pyrrolidin-3-ol] is 2.7-fold higher in EC50: 0.006 µM for the first, 0.016 µM for the second.

Going from Cc1ccc2nc(N3CCC(F)(F)c4ccccc4C3)cc(N[C@H]3CC[C@@H](N)CC3)c2c1 [Example 110-9, cis-N-[2-(5,5-Difluoro-1,3,4,5-tetrahydro-2H-2-benzazepin-2-yl)-6-methylquinolin-4-yl]cyclohexane-1,4-diamine] to Cc1ccc2nc(N3CCC(F)(F)c4ccccc4C3)cc(NC3CCCC(N)C3)c2c1 (stereo not shown) [Example 111-7, N-[2-(5,5-Difluoro-1,3,4,5-tetrahydro-2H-2-benzazepin-2-yl)-6-methylquinolin-4-yl]cyclohexane-1,3-diamine], the EC50 falls from 1.37 µM to 0.873 µM (1.6-fold). The second is the more potent here.

Going from Cc1ccc2nc(N3CCS(=O)(=O)c4ccccc4C3)cc(NCC(O)CO)c2c1 (stereo not shown) [Example 32-1, 3-{[2-(1,1-Dioxido-2,3-dihydro-1,4-benzothiazepin-4(5H)-yl)-6-methylquinolin-4-yl]amino}propane-1,2-diol] to Cc1ccc2nc(N3CCS(=O)(=O)c4ccccc4C3)cc(NCC(O)CN)c2c1 (stereo not shown) [Example 9-7, 1-Amino-3-{[2-(1,1-dioxido-2,3-dihydro-1,4-benzothiazepin-4(5H)-yl)-6-methylquinolin-4-yl]amino}propan-2-ol], the EC50 falls from 0.019 µM to 0.002 µM (9.5-fold). The second is the more potent here.

Compared with Cc1ccc2nc(N3CC[S+]([O-])c4ccccc4C3)cc(N3C[C@@H](N)[C@H](O)C3)c2c1 (relative stereo) [Example 19-1, trans-4-Amino-1-[6-methyl-2-(1-oxido-2,3-dihydro-1,4-benzothiazepin-4(5H)-yl)quinolin-4-yl]pyrrolidin-3-ol], Cc1ccc2nc(N3CC[S+]([O-])c4ccccc4C3)cc(N[C@@H]3CNC[C@H]3F)c2c1 (relative stereo) [Example 28-5, N-[trans-4-Fluoropyrrolidin-3-yl]-6-methyl-2-(1-oxido-2,3-dihydro-1,4-benzothiazepin-4(5H)-yl)quinolin-4-amine] is 14-fold lower in EC50: 0.043 µM for the first, 0.003 µM for the second.

Going from Cc1ccc2nc(N3CCC(F)(F)c4ccccc4C3)cc(NC3CCNC3)c2c1 (stereo not shown) [Example 110-10] to Cc1ccc2nc(N3CCC(F)(F)c4ccccc4C3)cc(NCCN)c2c1 [Example 111-6, N-[2-(5,5-Difluoro-1,3,4,5-tetrahydro-2H-2-benzazepin-2-yl)-6-methylquinolin-4-yl]ethane-1,2-diamine], the EC50 falls from 0.099 µM to 0.062 µM (1.6-fold).

Going from CC(=O)NCC1(CNc2cc(N3CCS(=O)(=O)c4ccccc4C3)nc3ccc(C)cc23)COC1 [Example 63-2, N-{[3-({[2-(1,1-D ioxido-2,3-dihydro-1,4-benzothiazepin-4(5H)-yl)-6-methylquinolin-4-yl]amino}methyl)oxetan-3-yl]methyl}acetamide] to NCC1(CNc2cc(N3CCS(=O)(=O)c4ccccc4C3)nc3ccc(CO)cc23)COC1 [Example 106, [4-({[3-(Aminomethyl)oxetan-3-yl]methyl}amino)-2-(1,1-dioxido-2,3-dihydro-1,4-benzothiazepin-4(5H)-yl)quinolin-6-yl]methanol], the EC50 falls from 2.02 µM to 0.002 µM (1000-fold).

Going from Cc1ccc2nc(N3CCS(=O)(=O)c4ccccc4C3)cc(NCCC(N)=O)c2c1 [Example 36-1, N^˜3^˜-[2-(1,1-Dioxido-2,3-dihydro-1,4-benzothiazepin-4(5H)-yl)-6-methylquinolin-4-yl]-beta-alaninamide] to Cc1ccc2nc(N3CCS(=O)(=O)c4ccccc4C3)cc(NCC3(N)CC3)c2c1 [Example 21-5, (1-Amino-cyclopropylmethyl)-[2-(5,5-dioxo-5,6,7,9-tetrahydro-5λ^6-thia-8-aza-benzocyclohepten-8-yl)-6-methyl-quinolin-4-yl]-amine], the EC50 falls from 0.073 µM to 0.007 µM (10-fold).

Going from Cc1ccc2nc(N3CCS(=O)(=O)c4ccccc4C3)cc(NC(C)(C)CN)c2c1 [Example 9-17, N^˜2^˜-[2-(1,1-Dioxido-2,3-dihydro-1,4-benzothiazepin-4(5H)-yl)-6-methylquinolin-4-yl]-2-methylpropane-1,2-diamine] to Cc1ccc2nc(N3CCS(=O)(=O)c4ccccc4C3)cc(NC(C)CN)c2c1 (stereo not shown) [Example 9-18, N^˜2^˜-[2-(1,1-Dioxido-2,3-dihydro-1,4-benzothiazepin-4(5H)-yl)-6-methylquinolin-4-yl]propane-1,2-diamine], the EC50 falls from 0.025 µM to 0.01 µM (2.5-fold).

Compared with Cc1ccc2nc(N3CCS(=O)(=O)c4ccccc4C3)nc(NCC3(N)CC3)c2c1 [Example 135-1, N-[(1-Aminocyclopropyl)methyl]-2-(1,1-dioxido-2,3-dihydro-1,4-benzothiazepin-4(5H)-yl)-6-methylquinazolin-4-amine], Cc1ccc2nc(N3CCS(=O)(=O)c4ccccc4C3)nc(NCC(F)(F)CN)c2c1 [Example 56-4, N-[2-(1,1-Dioxido-2,3-dihydro-1,4-benzothiazepin-4(5H)-yl)-6-methylquinazolin-4-yl]-2,2-difluoropropane-1,3-diamine] is 4.5-fold higher in EC50: 0.006 µM for the first, 0.027 µM for the second.

Going from Cc1ccc2nc(N3CCS(=O)(=O)c4ccccc4C3)cc(CC[C@@H]3COC(N)=N3)c2c1 [Example 94, (4R)-4-{2-[2-(1,1-Dioxido-2,3-dihydro-1,4-benzothiazepin-4(5H)-yl)-6-methylquinolin-4-yl]ethyl}-4,5-dihydro-1,3-oxazol-2-amine] to Cc1ccc2nc(N3CCS(=O)(=O)c4ccccc4C3)cc(NCCNC3COC3)c2c1 [Example 45-3, N-[2-(1,1-Dioxido-2,3-dihydro-1,4-benzothiazepin-4(5H)-yl)-6-methylquinolin-4-yl]-N′-(oxetan-3-yl)ethane-1,2-diamine], the EC50 falls from 6.53 µM to 0.031 µM (210-fold). The second is the more potent here.

First: Cc1ccc2nc(N3CCC(F)(F)c4ccccc4C3)cc(NCC3(N)COC3)c2c1 [Example 110-1, N-[(3-Aminooxetan-3-yl)methyl]-2-(5,5-difluoro-1,3,4,5-tetrahydro-2H-2-benzazepin-2-yl)-6-methylquinolin-4-amine]
Second: Cc1ccc2nc(N3CCC(C)(O)c4ccccc4C3)nc(NCC3(N)COC3)c2c1 (stereo not shown) [Example 115, 2-(4-{[(3-Aminooxetan-3-yl)methyl]amino}-6-methylquinazolin-2-yl)-5-methyl-2,3,4,5-tetrahydro-1H-2-benzazepin-5-ol]
The EC50 of the first is 1.7-fold higher: 0.017 µM for the first, 0.01 µM for the second.

First: Cc1ccc2nc(N3CCS(=O)(=O)c4ccccc4C3)cc(NC(=O)C3CCNCC3)c2c1 [Example 3-62, N-[2-(1,1-Dioxido-2,3-dihydro-1,4-benzothiazepin-4(5H)-yl)-6-methylquinolin-4-yl]piperidine-4-carboxamide]
Second: Cc1ccc2nc(N3CCS(=O)(=O)c4ccccc4C3C)cc(NCC(O)CO)c2c1 (stereo not shown) [Example 32-5, 3-{[6-Methyl-2-(5-methyl-1,1-dioxido-2,3-dihydro-1,4-benzothiazepin-4(5H)-yl)quinolin-4-yl]amino}propane-1,2-diol]
The EC50 of the first is 4.4-fold lower: 0.589 µM for the first, 2.58 µM for the second.

First: Cc1ccc2nc(N3CCC(F)(F)c4ccccc4C3)nc(NCC(CN)(CO)CO)c2c1 [Example 114-4, 2-(Aminomethyl)-2-({[2-(5,5-difluoro-1,3,4,5-tetrahydro-2H-2-benzazepin-2-yl)-6-methylquinazolin-4-yl]amino}methyl)propane-1,3-diol]
Second: NCC1(CNc2nc(N3CC[S+]([O-])c4ccccc4C3)nc3ccc(C(=O)O)cc23)COC1 (stereo not shown) [Example 108-1, 4-({[3-(Aminomethyl)oxetan-3-yl]methyl}amino)-2-(1-oxido-2,3-dihydro-1,4-benzothiazepin-4(5H)-yl)quinazoline-6-carboxylic acid]
The EC50 of the first is 2.6-fold lower: 0.186 µM for the first, 0.488 µM for the second. The first is the more potent here.
